The record followed here is publication PMC8093080 (Biochemistry, 2020).

In general, Kd refers to the free concentration of one partner at which half of the binding sites on the other are occupied at equilibrium, for simple one-to-one binding. Low readings indicate tighter binding, high ones weaker binding.

This test addresses T1, trp RNA-binding attenuation protein (TRAP) (Geobacillus stearothermophilus, UniProt Q9X6J6).
T1 sequence (Q9X6J6 1-74): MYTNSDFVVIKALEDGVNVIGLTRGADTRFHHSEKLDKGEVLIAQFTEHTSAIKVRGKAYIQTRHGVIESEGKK
The test can be described thus: ITC at […]°C in phosphate buffer.

Molecules are shown by their SMILES.

In turn, `N[C@@H](Cc1c[nH]c2ccccc12)C(=O)O` [Trp, tryptophan] returned a Kd of 0.115 ± 0.003 µM.
